The values below come from patent US20230203004A1, “RSV INHIBITING 3-SUBSTITUTED QUINOLINE AND CINNOLINE DERIVATIVES” (Janssen Sciences Ireland Unlimited Company, priority 2020, published 2023).

In one data set the test system is rgRSV224 virus. Description: Antiviral activity: rgRSV224 (GFP) replication in HeLa cells. The data set is classed as cell-based, respiratory syncytial virus (RSV). Put shortly: (§1)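 HeLa cells infected with GFP-expressing rgRSV224 at MOI 1 in RPMI/10% FBS, 0.05% DMSO, with 9 serial 4-fold compound dilutions; 3 days at 37 °C, GFP read by laser microscopy for EC50. Cytotoxicity: uninfected HeLa cells, 3 days, cellular ATP (ATPlite) for CC50.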

For the next data set, the system named is HeLa cells. Put plainly: Cytotoxicity in HeLa cells (ATP content, ATPlite kit). The data set is classed as cell-based. Put shortly:
as §1
In general terms: ATP-based viability assays read luminescence as a measure of living cells.

Test in data set [1]: as above
The data set is classed as cell-based. The note with it: human. In short, it runs like this:
as §1

Where [2] appears, read: HeLa cells, rgRSV224 MOI = 1, GFP expression three days post-virus exposure, averaged data of several repeat experiments, read-out: RSV HELA EC50.
Where [3] appears, read: HeLa cells, three days incubation, ATP content, averaged data of several repeat experiments, read-out: TOX HELA CC50.
[4] abbreviates: read-out: RSV HELA EC50, HeLa cells, rgRSV224 MOI = 1, GFP expression three days post-virus exposure, averaged data of several repeat experiments.
Where [5] appears, read: human respiratory syncytial virus, HeLa, 72 h, read-out: RSV HELA EC50, HeLa cells, rgRSV224 MOI = 1, GFP expression three days post-virus exposure, averaged data of several repeat experiments.

Read-outs that look alike come from different tables or passages of the source.

In general, EC50 refers to the concentration needed to bring the measured effect to its halfway point. Usually CC50 stands for the concentration at which the toxic effect on the cells reaches its halfway point. As for `COc1cc(C(=O)NCC(O)(c2nc(-c3ccc(F)cc3)c(Cl)c(C(C)(C)O)c2F)C(F)(F)F)cc2cc(C)nnc12` (single isomer, unassigned; (+)) [compound 248, (+)-N-{2-[5-Chloro-3-Fluoro-6-(4-Fluorophenyl)-4-(2-Hydroxypropan-2-yl)Pyridin-2-yl]-3,3,3-Trifluoro-2-Hydroxypropyl}-8-Methoxv-3-Methylcinnoline-6-Carboxamide], the EC50 with rgRSV224 virus (setting [2]) turned out to be 0.5 µM. Moreover, in the data set with HeLa cells (setting [3]), the CC50 turned out to be 41 µM.

Consider `COc1cc(C(=O)NCC(O)(c2cc(C(C)(C)O)c(F)c(-c3ccc(F)cc3)n2)C(F)F)cc2cc(C)cnc12` (single isomer, unassigned; (-)) [compound 204, (-)-N-{3,3-Difluoro-2-[5-Fluoro-6-(4-Fluorophenyl)-4-(2-Hydroxypropan-2-yl)Pyridin-2-yl]-2-Hydroxypropyl}-8-Methoxy-3-Methylquinoline-6-Carboxamide], for which the EC50 in the data set with rgRSV224 virus (setting [4]) stood at 0.001 µM. In addition, in the data set on HeLa cells (human, 3 days), it took 48 µM to reach half-maximal cytotoxicity (CC50).

With `COc1cc(C(=O)NCC(O)(c2cc(C(C)(C)O)c(F)c(-c3ccc(F)cc3)n2)C(F)F)cc2cc(C)c(F)nc12` (single isomer, unassigned; (-)) [compound 214, (-)-N-{3,3-Difluoro-2-[5-Fluoro-6-(4-Fluorophenyl)-4-(2-Hydroxypropan-2-yl)Pyridin-2-yl]-2-Hydroxypropyl}-2-Fluoro-8-Methoxy-3-Methylquinoline-6-Carboxamide], the EC50 in the data set with rgRSV224 virus (setting [4]) was found to be 0.0014 µM. The same compound yielded a CC50 with HeLa cells (human, 3 days) of 28 µM.

As to `COc1cc(C(=O)NCC(O)(c2cc(C(C)(C)O)c(Cl)c(-c3ccc(F)cc3)n2)C(C)C)cc2cc(C)nnc12` (single isomer, unassigned; (-)) [compound 231, (-)-N-{2-[5-Chloro-6-(4-Fluorophenyl)-4-(2-Hydroxypropan-2-yl)Pyridin-2-yl]-2-Hydroxy-3-Methylbutyl}-8-Methoxy-3-Methylcinnolme-6-Carboxamide], the EC50 in the data set with rgRSV224 virus (setting [2]) stood at 0.00041 µM. Also, in the data set on HeLa cells (setting [3]), the CC50 was 21 µM.

With `COc1cc(C(=O)NCC(O)(c2cc(C(C)(C)O)c(F)c(-c3ccc(F)cc3)n2)C(F)F)cc2cc(C)nnc12` (single isomer, unassigned; (-)) [compound 250, (-)-N-{3,3-Difluoro-2-[5-Fluoro-6-(4-Fluorophenyl)-4-(2-Hydroxypropan-2-yl)Pyridin-2-yl]-2-Hydroxypropyl}-8-Methoxy-3-Methylcinnoline-6-Carboxamide], the EC50 in the data set with rgRSV224 virus (setting [4]) amounted to 0.0014 µM. This compound registered a CC50 in the data set on HeLa cells (human, 3 days) of 40 µM.

In the case of `COc1cc(C(=O)NCC(O)(c2cc(C(C)(C)O)c(F)c(-c3ccc(C(F)(F)F)cc3)n2)C2CC2)cc2cc(C)nnc12` (single isomer, unassigned; (-)) [compound 253], the EC50 in the data set on rgRSV224 virus (setting [2]) is 0.00025 µM. Also, the CC50 with HeLa cells (setting [3]) stood at 13 µM.

On to `COc1cc(C(=O)NCC(O)(c2cc(C(C)(C)O)c(F)c(-c3ccc(F)c(F)c3)n2)C2CC2)cc2cc(C)nnc12` (single isomer, unassigned; (-)) [compound 256], for which the EC50 in the data set on rgRSV224 virus (setting [2]) worked out at 0.00019 µM. Moreover, the CC50 in the data set with HeLa cells (setting [3]) was determined as 33 µM.

As for `Cc1cc2cc(C(=O)NCC(O)(c3nc(-c4ccc(F)cc4)c(F)c(C(C)(C)O)c3F)C(F)(F)F)cc(OC3CC3)c2nn1` (single isomer, unassigned; (-)) [compound 262, (-)(Cyclopropyloxy)-N-{2-[3,5-Difluoro-6-(4-Fluorophenyl)-4-(2-Hydroxypropan-2-yl)Pyridin-2-yl]-3,3,3-Trifluoro-2-Hydroxypropyl}-3-Methylcinnoline-6-Carboxamide], the EC50 with rgRSV224 virus (setting [2]) worked out at 0.0019 µM. In the data set on HeLa cells (setting [3]), the CC50 came out at 45 µM.

For `Cc1cc2cc(C(=O)NCC(O)(c3nc(-c4ccc(F)cc4)c(Cl)c(C(C)(C)O)c3F)C(F)(F)F)cc(OC3CC3)c2nn1` (single isomer, unassigned; (-)) [compound 263], in the data set with rgRSV224 virus (setting [2]), the EC50 was 0.0027 µM. Besides, in the data set on HeLa cells (setting [3]), the CC50 worked out at 47 µM.

In the case of `COc1cc(C(=O)NC[C@@](O)(c2nc(-c3ccc(F)cc3)c(F)c(C(C)(C)O)c2C)C2CC2)cc2cc(C)nnc12` [compound 245], in the data set on rgRSV224 virus (setting [2]), the EC50 is 0.0029 µM. Further, the CC50 with HeLa cells amounted to 48 µM.

`COc1cc(C(=O)NC[C@](O)(c2nc(-c3ccc(F)cc3)c(F)c(C(C)(C)O)c2C)C2CC2)cc2cc(C)nnc12` [compound 246]: the EC50 in the data set with rgRSV224 virus (setting [2]) amounted to 0.2 µM. In the data set on HeLa cells, the cytotoxic concentration (CC50) turned out to be 46 µM.

As to `COc1cc(C(=O)NC[C@](O)(c2cc(C(C)(C)O)c(Cl)c(-c3ccc(F)cc3)n2)C(F)(F)F)cc2cc(C(F)F)cnc12` [compound 327, (-)(Difluoromethyl)-8-Methoxy-N-(3,3,3-Trifluoro-2-(5-Chloro-6-(4-Fluorophenyl)-4-(2-Hydroxypropan-2-yl)Pyridin-2-yl)-2-Hydroxypropyl)Quinoline-6-Carboxamide], in the data set with rgRSV224 virus (setting [5]), the EC50 worked out at 0.0095 µM. Besides, the half-maximal cytotoxic concentration (CC50) at 3 days in data set [1] (TOX HELA CC50) is 15 µM.

Turning to `COc1cc(C(=O)NC[C@](O)(c2cc(C(C)(C)O)c(Cl)c(-c3ccc(F)cc3)n2)C(F)(F)F)cc2cc(C(F)(F)F)cnc12` [compound 328, (-)(Trifluoromethyl)-8-Methoxy-N-(3,3,3-Trifluoro-2-(5-Chloro-6-(4-Fluorophenyl)-4-(2-Hydroxypropan-2-yl)Pyridin-2-yl)-2-Hydroxypropyl)Quinoline-6-Carboxamide], the EC50 with rgRSV224 virus (setting [5]) amounted to 0.04 µM. The midpoint of cytotoxicity in data set [1] (TOX HELA CC50), the CC50 at 3 days, lay at 14 µM.

In the case of `COc1cc(C(=O)NC[C@](O)(c2cc(C(C)(C)O)c(F)c(-c3ccc(F)c(F)c3)n2)C(F)(F)F)cc2cc(C(F)F)cnc12` [compound 330, (-)(Difluoromethyl)-8-Methoxy-N-(3,3,3-Trifluoro-2-(5-Fluoro-6-(3,4-Difluorophenyl)-4-(2-Hydroxypropan-2-yl)Pyridin-2-yl)-2-Hydroxypropyl)Quinoline-6-Carboxamide], in the data set on rgRSV224 virus (setting [5]), the EC50 is 0.01 µM. In data set [1] (TOX HELA CC50), this compound displayed a half-maximal cytotoxic concentration (CC50) at 3 days of 13 µM.

Take `COc1cc(C(=O)NC[C@](O)(c2cc(C(C)(C)O)c(Cl)c(-c3ccc(F)cc3)n2)C2CC2)cc2cc(C(F)(F)F)cnc12` [compound 331]: the concentration for a half-maximal effect (EC50) with rgRSV224 virus (setting [5]) was found to be 0.0038 µM. In addition, in data set [1] (TOX HELA CC50), the midpoint of cytotoxicity, the CC50 at 3 days, lay at 14 µM.

Take `COc1cc(C(=O)NC[C@](O)(c2cc(C(C)(C)O)c(F)c(-c3ccc(F)cc3)n2)C2CC2)cc2cc(C3CC3)cnc12` [compound 332, (-)Cyclopropyl-N-(2-Cyclopropyl-2-(5-Fluoro-6-(4-Fluorophenyl)-4-(2-Hydroxypropan-2-yl)Pyridin-2-yl)-2-Hydroxyethyl)-8-Methoxyquinoline-6-Carboxamide]: the EC50 in the data set with rgRSV224 virus (setting [5]) was determined as 0.033 µM. This compound registered a CC50 at 3 days in data set [1] (TOX HELA CC50) of 14 µM.

For the compound `COc1cc(C(=O)NC[C@@](O)(c2cc(C(C)(C)O)c(F)c(-c3ccc(F)cc3)n2)C(F)(F)F)cc2cc(C)nnc12` [compound 334, (+)Methoxy-3-Methyl-N-(3,3,3-Trifluoro-2-(5-Fluoro-6-(4-Fluorophenyl)-4-(2-Hydroxypropan-2-yl)Pyridin-2-yl)-2-Hydroxypropyl)Cinnoline-6-Carboxamide], the EC50 in the data set with rgRSV224 virus (setting [5]) is 0.245 µM. Also, in data set [1] (TOX HELA CC50), the CC50 at 3 days was 17 µM.

As to `COc1cc(C(=O)NCC(O)(c2cc(C(C)(C)N)c(F)c(-c3ccc(F)c(Cl)c3)n2)C(F)(F)F)cc2cccnc12` (stereo not drawn) [reference compound], in the data set on rgRSV224 virus (human respiratory syncytial virus, HeLa, comparison table 5.3, antiviral RSV assay of Example 5.1), a half-maximal effect (EC50) was put at 0.053 µM. It took 13 µM to reach half-maximal cytotoxicity in data set [1] (CC50) (CC50 at 3 days).
